Data from patent US8148373B2, “Compounds” (AstraZeneca AB, priority 2008, dated 2012).

What was measured:
[1] = target: T1, Adrenergic β2 (H292 cells) (Homo sapiens, UniProt P07550); experiment: Adrenergic β2 Mediated cAMP Production, single concentration 1 μM; assay type: cell-based; conditions: NCI-H292, 1 μM compound, percentage of the maximum response generated by 1E-07M formoterol, read-out: β2 (% effect at 1 μM)
T1 construct: endogenous in cells; host or cells: H292 cells
Method in brief: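 cAMP was quantified by AlphaScreen in lysates of H292 cells and reported as a percentage of the 1E-07M formoterol maximum. Before lysis the cells, seeded the previous day, received rolipram (300 μM final) and then test compound at a final 1 μM in 1% DMSO for 60 min at room temperature.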

[2] = target: T2, human muscarinic acetylcholine M3 receptor (M3-ACh) (Homo sapiens, UniProt P20309); experiment: Muscarinic 3 Receptor Binding Assay, % inhibition specific binding at 1 μM; conditions: 1 μM compound, % inhibition specific [3H]-NMS binding
T2 construct: expressed in transfected cells; host or cells: CHO-K1 (Chinese Hamster Ovary) cell membranes
Method in brief: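 Value is % inhibition of specific [3H]N-methyl scopolamine binding (0.1 nM, quarter Kd) by 1 μM compound, using SPA beads precoated with human M3-expressing CHO-K1 membranes. Buffer HEPES pH 7.4 with MgCl2 and 1% DMSO; 16 h at room temperature; 1 μM atropine sets non-specific binding.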

T1 sequence (P07550 whole entry): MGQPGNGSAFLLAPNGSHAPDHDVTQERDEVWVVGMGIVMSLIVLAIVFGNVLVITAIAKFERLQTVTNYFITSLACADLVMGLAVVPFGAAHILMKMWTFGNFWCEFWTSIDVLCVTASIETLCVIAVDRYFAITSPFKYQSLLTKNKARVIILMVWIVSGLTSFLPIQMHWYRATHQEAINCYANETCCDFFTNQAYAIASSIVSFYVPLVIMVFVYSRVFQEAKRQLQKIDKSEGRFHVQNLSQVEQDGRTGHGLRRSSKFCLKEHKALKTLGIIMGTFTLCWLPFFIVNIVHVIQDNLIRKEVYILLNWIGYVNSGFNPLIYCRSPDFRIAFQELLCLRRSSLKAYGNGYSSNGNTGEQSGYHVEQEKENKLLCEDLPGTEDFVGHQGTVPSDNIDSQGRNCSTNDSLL
T2 sequence (P20309 whole entry): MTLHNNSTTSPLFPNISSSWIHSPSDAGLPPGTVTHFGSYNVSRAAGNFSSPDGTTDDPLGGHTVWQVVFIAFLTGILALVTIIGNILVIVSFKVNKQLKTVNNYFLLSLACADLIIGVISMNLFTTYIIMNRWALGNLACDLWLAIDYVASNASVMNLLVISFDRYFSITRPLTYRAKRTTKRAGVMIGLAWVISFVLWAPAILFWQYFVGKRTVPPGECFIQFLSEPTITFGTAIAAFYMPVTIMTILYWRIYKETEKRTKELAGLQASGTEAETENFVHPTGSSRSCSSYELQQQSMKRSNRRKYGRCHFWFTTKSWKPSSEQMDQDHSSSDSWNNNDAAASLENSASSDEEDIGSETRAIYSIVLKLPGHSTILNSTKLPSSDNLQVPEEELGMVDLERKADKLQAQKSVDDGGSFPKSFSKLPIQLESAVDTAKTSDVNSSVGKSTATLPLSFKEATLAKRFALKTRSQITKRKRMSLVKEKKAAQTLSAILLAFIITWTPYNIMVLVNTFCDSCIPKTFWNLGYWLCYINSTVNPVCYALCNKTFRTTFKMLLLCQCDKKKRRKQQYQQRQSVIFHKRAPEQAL

| activation at 1 µM [1] | inhibition at 1 µM [2] | Structure (SMILES) |
| --- | --- | --- |
| 93% | 96% | CC(C)(C(=O)N1CCOC2(CCN(CCCCCCCCCNC[C@H](O)c3ccc(O)c4[nH]c(=O)sc34)CC2)C1)c1ccccc1 [Example 189, (R)-4-hydroxy-7-(1-hydroxy-2-(9-(4-(2-methyl-2-phenylpropanoyl)-1-oxa-4,9-diazaspiro[5.5]undecan-9-yl)nonylamino)ethyl)benzo[d]thiazol-2(3H)-one] |
| 82% | 94% | Cc1ccsc1C(=O)N1CCOC2(CCN(CCCCCCCCCNC[C@H](O)c3ccc(O)c4[nH]c(=O)sc34)CC2)C1 [Example 191, (R)-4-hydroxy-7-(1-hydroxy-2-(9-(4-(3-methylthiophene-2-carbonyl)-1-oxa-4,9-diazaspiro[5.5]undecan-9-yl)nonylamino)ethyl)benzo[d]thiazol-2(3H)-one] |
| 88% | 96% | O=C(Cc1ccsc1)N1CCOC2(CCN(CCCCCCCCCNC[C@H](O)c3ccc(O)c4[nH]c(=O)sc34)CC2)C1 [Example 192, (R)-4-hydroxy-7-(1-hydroxy-2-(9-(4-(2-(thiophen-3-yl)acetyl)-1-oxa-4,9-diazaspiro[5.5]undecan-9-yl)nonylamino)ethyl)benzo[d]thiazol-2(3H)-one] |
| 91% | 99% | Cc1ccoc1C(=O)N1CCOC2(CCN(CCCCCCCCCNC[C@H](O)c3ccc(O)c4[nH]c(=O)sc34)CC2)C1 [Example 193, (R)-4-hydroxy-7-(1-hydroxy-2-(9-(4-(3-methylfuran-2-carbonyl)-1-oxa-4,9-diazaspiro[5.5]undecan-9-yl)nonylamino)ethyl)benzo[d]thiazol-2(3H)-one] |
| 86% | 88% | Cc1cc(C(=O)N2CCOC3(CCN(CCCCCCCCCNC[C@H](O)c4ccc(O)c5[nH]c(=O)sc45)CC3)C2)oc1C [Example 195, (R)-7-(2-(9-(4-(4,5-dimethylfuran-2-carbonyl)-1-oxa-4,9-diazaspiro[5.5]undecan-9-yl)nonylamino)-1-hydroxyethyl)-4-hydroxybenzo[d]thiazol-2(3H)-one] |
| 78% | 97% | Cc1occc1C(=O)N1CCOC2(CCN(CCCCCCCCCNC[C@H](O)c3ccc(O)c4[nH]c(=O)sc34)CC2)C1 [Example 197, (R)-4-hydroxy-7-(1-hydroxy-2-(9-(4-(2-methylfuran-3-carbonyl)-1-oxa-4,9-diazaspiro[5.5]undecan-9-yl)nonylamino)ethyl)benzo[d]thiazol-2(3H)-one] |
| 91% | 91% | O=C(COc1ccccc1)N1CCOC2(CCN(CCCCCCCCCNC[C@H](O)c3ccc(O)c4[nH]c(=O)sc34)CC2)C1 [Example 199, (R)-4-hydroxy-7-(1-hydroxy-2-(9-(4-(2-phenoxyacetyl)-1-oxa-4,9-diazaspiro[5.5]undecan-9-yl)nonylamino)ethyl)benzo[d]thiazol-2(3H)-one] |
| 92% | 70% | Cc1ccnn1CC(=O)N1CCOC2(CCN(CCCCCCCCCNC[C@H](O)c3ccc(O)c4[nH]c(=O)sc34)CC2)C1 [Example 200, (R)-4-hydroxy-7-(1-hydroxy-2-(9-(4-(2-(5-methyl-1H-pyrazol-1-yl)acetyl)-1-oxa-4,9-diazaspiro[5.5]undecan-9-yl)nonylamino)ethyl)benzo[d]thiazol-2(3H)-one] |
| 85% | 91% | Cc1sccc1C(=O)N1CCOC2(CCN(CCCCCCCCCNC[C@H](O)c3ccc(O)c4[nH]c(=O)sc34)CC2)C1 [Example 205, (R)-4-hydroxy-7-(1-hydroxy-2-(9-(4-(2-methylthiophene-3-carbonyl)-1-oxa-4,9-diazaspiro[5.5]undecan-9-yl)nonylamino)ethyl)benzo[d]thiazol-2(3H)-one] |
| 98% | 88% | Cc1cc(CC(=O)N2CCOC3(CCN(CCCCCCCCCNC[C@H](O)c4ccc(O)c5[nH]c(=O)sc45)CC3)C2)on1 [Example 208, (R)-4-hydroxy-7-(1-hydroxy-2-(9-(4-(2-(3-methylisoxazol-5-yl)acetyl)-1-oxa-4,9-diazaspiro[5.5]undecan-9-yl)nonylamino)ethyl)benzo[d]thiazol-2(3H)-one] |
| 91% | 68% | Cc1nc(C)c(CC(=O)N2CCOC3(CCN(CCCCCCCCCNC[C@H](O)c4ccc(O)c5[nH]c(=O)sc45)CC3)C2)s1 [Example 211, (R)-7-(2-(9-(4-(2-(2,4-dimethylthiazol-5-yl)acetyl)-1-oxa-4,9-diazaspiro[5.5]undecan-9-yl)nonylamino)-1-hydroxyethyl)-4-hydroxybenzo[d]thiazol-2(3H)-one] |
| 82% | 91% | CC(C)c1cc(C(=O)N2CCOC3(CCN(CCCCCCCCCNC[C@H](O)c4ccc(O)c5[nH]c(=O)sc45)CC3)C2)no1 [Example 214, (R)-4-hydroxy-7-(1-hydroxy-2-(9-(4-(5-isopropylisoxazole-3-carbonyl)-1-oxa-4,9-diazaspiro[5.5]undecan-9-yl)nonylamino)ethyl)benzo[d]thiazol-2(3H)-one] |
| 89% | 94% | Cc1nc2cc(C(=O)N3CCOC4(CCN(CCCCCCCCCNC[C@H](O)c5ccc(O)c6[nH]c(=O)sc56)CC4)C3)ccc2s1 [Example 215, (R)-4-hydroxy-7-(1-hydroxy-2-(9-(4-(2-methylbenzo[d]thiazole-5-carbonyl)-1-oxa-4,9-diazaspiro[5.5]undecan-9-yl)nonylamino)ethyl)benzo[d]thiazol-2(3H)-one] |

Second part, the molecule before the results:

| Structure (SMILES) | activation at 1 µM [1] | inhibition at 1 µM [2] |
| --- | --- | --- |
| O=C(CCc1ccccc1)N1CCOC2(CCN(CCCCCCCCCNC[C@H](O)c3ccc(O)c4[nH]c(=O)sc34)CC2)C1 [Example 187, (R)-4-hydroxy-7-(1-hydroxy-2-(9-(4-(3-phenylpropanoyl)-1-oxa-4,9-diazaspiro[5.5]undecan-9-yl)nonylamino)ethyl)benzo[d]thiazol-2(3H)-one] | 92% | 84% |
| O=C(CCCc1ccccc1)N1CCOC2(CCN(CCCCCCCCCNC[C@H](O)c3ccc(O)c4[nH]c(=O)sc34)CC2)C1 [Example 188, (R)-4-hydroxy-7-(1-hydroxy-2-(9-(4-(4-phenylbutanoyl)-1-oxa-4,9-diazaspiro[5.5]undecan-9-yl)nonylamino)ethyl)benzo[d]thiazol-2(3H)-one] | 93% | 96% |
| O=C(c1cc2ccccc2s1)N1CCOC2(CCN(CCCCCCCCCNC[C@H](O)c3ccc(O)c4[nH]c(=O)sc34)CC2)C1 [Example 194, (R)-7-(2-(9-(4-(benzo[b]thiophene-2-carbonyl)-1-oxa-4,9-diazaspiro[5.5]undecan-9-yl)nonylamino)-1-hydroxyethyl)-4-hydroxybenzo[d]thiazol-2(3H)-one] | 92% | 85% |
| Cc1cccc(C(=O)N2CCOC3(CCN(CCCCCCCCCNC[C@H](O)c4ccc(O)c5[nH]c(=O)sc45)CC3)C2)n1 [Example 196, (R)-4-hydroxy-7-(1-hydroxy-2-(9-(4-(6-methylpicolinoyl)-1-oxa-4,9-diazaspiro[5.5]undecan-9-yl)nonylamino)ethyl)benzo[d]thiazol-2(3H)-one] | 89% | 95% |
| O=C(COCc1ccccc1)N1CCOC2(CCN(CCCCCCCCCNC[C@H](O)c3ccc(O)c4[nH]c(=O)sc34)CC2)C1 [Example 203, (R)-7-(2-(9-(4-(2-(benzyloxy)acetyl)-1-oxa-4,9-diazaspiro[5.5]undecan-9-yl)nonylamino)-1-hydroxyethyl)-4-hydroxybenzo[d]thiazol-2(3H)-one] | 99% | 94% |
| Cc1ccn(CC(=O)N2CCOC3(CCN(CCCCCCCCCNC[C@H](O)c4ccc(O)c5[nH]c(=O)sc45)CC3)C2)n1 [Example 204, (R)-4-hydroxy-7-(1-hydroxy-2-(9-(4-(2-(3-methyl-1H-pyrazol-1-yl)acetyl)-1-oxa-4,9-diazaspiro[5.5]undecan-9-yl)nonylamino)ethyl)benzo[d]thiazol-2(3H)-one] | 101% | 97% |
| O=C(CCOc1ccccc1)N1CCOC2(CCN(CCCCCCCCCNC[C@H](O)c3ccc(O)c4[nH]c(=O)sc34)CC2)C1 [Example 206, (R)-4-hydroxy-7-(1-hydroxy-2-(9-(4-(3-phenoxypropanoyl)-1-oxa-4,9-diazaspiro[5.5]undecan-9-yl)nonylamino)ethyl)benzo[d]thiazol-2(3H)-one] | 95% | 95% |
| O=C(CCc1cccs1)N1CCOC2(CCN(CCCCCCCCCNC[C@H](O)c3ccc(O)c4[nH]c(=O)sc34)CC2)C1 [Example 207, (R)-4-hydroxy-7-(1-hydroxy-2-(9-(4-(3-(thiophen-2-yl)propanoyl)-1-oxa-4,9-diazaspiro[5.5]undecan-9-yl)nonylamino)ethyl)benzo[d]thiazol-2(3H)-one] | 101% | 94% |
| O=C(c1ccsc1Cl)N1CCOC2(CCN(CCCCCCCCCNC[C@H](O)c3ccc(O)c4[nH]c(=O)sc34)CC2)C1 [Example 212, (R)-7-(2-(9-(4-(2-chlorothiophene-3-carbonyl)-1-oxa-4,9-diazaspiro[5.5]undecan-9-yl)nonylamino)-1-hydroxyethyl)-4-hydroxybenzo[d]thiazol-2(3H)-one] | 93% | 88% |
